Experimental data published in patent US5096817A, “Process for producing antibiotics BU-3608 D and BU-3608 E” (Bristol-Myers Company, priority 1990, dated 1992).

Columns and labels:
Candida albicans A9540 = assay: in vivo antifungal activity against C. albicans A9540 intravenous infection in mice; design: species or system male ICR mice; details: for ED50: Candida albicans, A9540, 480 h, intravenous, from survival rates on the 20th day, read-out: PD50 (dose that protects 50% of the animals from infection); for Number of survivors/tested: 20th day
Description: In vivo activity of BU-3608 E was tested against Candida albicans A9540 infection in mice. Test organisms were cultured for 18 hours at 28° C. in YGP medium (yeast extract, glucose, peptone, K2 HPO4, MgSO4) and then suspended in saline. Male ICR mice weighing 20 to 24 g were infected intravenously with about 10 times the median lethal dose of the test fungus. The antibiotic at various dose levels was administered to groups of 5 mice each intravenously just after the fungal infection. The dose that protects 50% of the animals from infection (PD50, mg/kg) was calculated from survival rates recorded on the 20th day after the fungal challenge. All control animals died within 7 to 15 days after infection. The PD50 for BU-3608 D against the same organism and using the same test protocol as described above is 9 mg/kg/inj.

[1] = acute toxicity in mice after single intravenous administration; details: mouse, in vivo
Description: The acute toxicity of BU-3608 D was determined in mice after single intraveneous administration.

Row | SMILES | ED50 (Candida albicans A9540) [mg/kg] | LD50 [1] [mg/kg] | Number of survivors/tested (Candida albicans A9540; 1.6 mg/kg/inj. intravenously just after infection) | Number of survivors/tested (Candida albicans A9540; 3.1 mg/kg/inj. intravenously just after infection) | Number of survivors/tested (Candida albicans A9540; 6.3 mg/kg/inj. intravenously just after infection) | Number of survivors/tested (Candida albicans A9540; 12.5 mg/kg/inj. intravenously just after infection) | Number of survivors/tested (Candida albicans A9540; 25 mg/kg/inj. intravenously just after infection) | Number of survivors/tested (Candida albicans A9540; 50 mg/kg/inj. intravenously just after infection)
1 | CN[C@@H]1[C@H](O[C@@H]2OC[C@@H](O)[C@H](O)[C@H]2O)[C@@H](O)[C@H](O[C@H]2c3cc(C)c(C(=O)NCC(=O)O)c(O)c3-c3c(cc4c(c3O)C(=O)c3cc(OC)cc(O)c3C4=O)[C@@H]2O)O[C@@H]1C [BU-3608 D] | 9 | 210 | – | – | – | – | – | –
2 | COc1cc(O)c2c(c1)C(=O)c1c(cc3c(c1O)-c1c(cc(C)c(C(=O)NCC(=O)O)c1O)[C@H](O[C@@H]1O[C@H](C)[C@H](N)[C@H](O[C@@H]4OC[C@@H](O)[C@H](O)[C@H]4O)[C@H]1O)[C@H]3O)C2=O [BU-3608 E] | 8.9 | – | 0/5 | 0/5 | 1/5 | 4/5 | 5/5 | 5/5
